According to PMC12299174, “Design, Synthesis, and Evaluation of 1-Benzylpiperidine and 1-Benzoylpiperidine Derivatives as Dual-Target Inhibitors of Acetylcholinesterase and Serotonin Transporter for Alzheimer′s Disease” (Molecules, 2025):
Structures can show the parent of a compound that is named as a salt. Where two headings read alike, the source gives them in different places.

Columns and labels:
h-SERT = biological target: T1, h-SERT (Homo sapiens, UniProt P31645); assay: biochemical; assay type: binding; settings: displacement of 2 nM [3H]-paroxetine, HEK293 membranes, Cheng-Prusoff
T1 construct: purchased Perkin-Elmer RBHSTM400UA; host or cells: HEK293 membranes
Protocol: Competitive binding studies were conducted on homogenized membranes prepared from the human clonal cell line HEK293 for h-SERT. […] The inhibitory activity on AChE or butyrylcholinesterase (BuChE), which has also been regarded as a relevant cholinesterase target in AD [23], was determined using the spectrophotometric method, as described by Ellman, modified from Mella (Section 3.3).
The cellular background HEK293 containing 400 µL of h-SERT (Code RBHSTM400UA, Perkin-Elmer, Santiago, Chile) was diluted in 12 Eppendorf tubes, containing a storage buffer solution of Tris-HCl 50 mM (pH 7.4), EDTA 0.5 mM, MgCl2 10 mM, and 10% sucrose, obtaining a final volume between 260 and 340 µL, which was finally stored at −80 °C [27]. […] Non-specific binding was determined using […] fluoxetine. After 30 min at 27 °C, the incubation was stopped by rapid filtration on a Whatman GF/C filter preabsorbed in 0.5% polyethylenimine (PEI), washed with cold working buffer solution, 3 × 3 mL, filtered, and scintillation liquid was added.

BuChE = BuChE (Homo sapiens, UniProt P06276); assay: biochemical
AChE = AChE (Homo sapiens, UniProt P22303); assay: biochemical; settings: means ± SD of three determinations, 30 min preincubation at 25 °C, pH 7.5
human AChE; h-AChE = settings: read-out: IC50 in human AChE (h-AChE); ref [14],[15],[16]; cited from earlier work
[1] = means ± SD of three determinations, 30 min preincubation at 25 °C, pH 7.5, read-out: BuChE IC50

Sequence of AChE (P22303 32-614): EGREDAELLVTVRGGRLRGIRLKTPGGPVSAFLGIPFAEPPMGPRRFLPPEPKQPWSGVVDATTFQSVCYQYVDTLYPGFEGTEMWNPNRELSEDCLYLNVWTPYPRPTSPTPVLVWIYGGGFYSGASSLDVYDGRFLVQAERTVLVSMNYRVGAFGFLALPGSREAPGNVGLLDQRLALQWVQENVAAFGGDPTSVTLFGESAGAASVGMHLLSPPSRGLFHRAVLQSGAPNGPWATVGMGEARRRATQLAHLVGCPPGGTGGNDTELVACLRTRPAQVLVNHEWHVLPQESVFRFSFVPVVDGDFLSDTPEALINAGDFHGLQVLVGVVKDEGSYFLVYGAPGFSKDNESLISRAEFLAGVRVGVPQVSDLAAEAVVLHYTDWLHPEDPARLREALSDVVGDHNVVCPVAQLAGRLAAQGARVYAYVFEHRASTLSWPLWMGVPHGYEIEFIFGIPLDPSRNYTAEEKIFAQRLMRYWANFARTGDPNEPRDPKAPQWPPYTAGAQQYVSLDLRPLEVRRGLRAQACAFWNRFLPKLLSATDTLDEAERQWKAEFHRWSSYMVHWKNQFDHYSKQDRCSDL
Sequence of BuChE (P06276 29-602): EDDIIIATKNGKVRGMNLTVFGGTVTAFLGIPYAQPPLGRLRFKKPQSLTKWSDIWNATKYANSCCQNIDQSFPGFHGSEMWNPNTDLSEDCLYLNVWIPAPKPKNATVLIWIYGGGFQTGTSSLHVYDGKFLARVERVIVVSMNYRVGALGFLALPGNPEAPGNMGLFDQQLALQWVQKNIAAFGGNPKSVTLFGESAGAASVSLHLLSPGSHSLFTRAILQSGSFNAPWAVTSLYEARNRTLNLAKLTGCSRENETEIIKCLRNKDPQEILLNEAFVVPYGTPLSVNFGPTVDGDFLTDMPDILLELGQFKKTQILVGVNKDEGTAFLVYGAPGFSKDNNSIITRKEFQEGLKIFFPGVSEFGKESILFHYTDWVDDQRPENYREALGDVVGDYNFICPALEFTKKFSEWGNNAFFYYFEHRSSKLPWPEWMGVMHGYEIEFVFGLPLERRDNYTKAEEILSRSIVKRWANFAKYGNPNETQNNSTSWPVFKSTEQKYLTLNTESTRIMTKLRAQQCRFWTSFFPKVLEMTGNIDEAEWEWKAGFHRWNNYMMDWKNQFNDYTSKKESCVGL
T1 sequence (P31645 whole entry): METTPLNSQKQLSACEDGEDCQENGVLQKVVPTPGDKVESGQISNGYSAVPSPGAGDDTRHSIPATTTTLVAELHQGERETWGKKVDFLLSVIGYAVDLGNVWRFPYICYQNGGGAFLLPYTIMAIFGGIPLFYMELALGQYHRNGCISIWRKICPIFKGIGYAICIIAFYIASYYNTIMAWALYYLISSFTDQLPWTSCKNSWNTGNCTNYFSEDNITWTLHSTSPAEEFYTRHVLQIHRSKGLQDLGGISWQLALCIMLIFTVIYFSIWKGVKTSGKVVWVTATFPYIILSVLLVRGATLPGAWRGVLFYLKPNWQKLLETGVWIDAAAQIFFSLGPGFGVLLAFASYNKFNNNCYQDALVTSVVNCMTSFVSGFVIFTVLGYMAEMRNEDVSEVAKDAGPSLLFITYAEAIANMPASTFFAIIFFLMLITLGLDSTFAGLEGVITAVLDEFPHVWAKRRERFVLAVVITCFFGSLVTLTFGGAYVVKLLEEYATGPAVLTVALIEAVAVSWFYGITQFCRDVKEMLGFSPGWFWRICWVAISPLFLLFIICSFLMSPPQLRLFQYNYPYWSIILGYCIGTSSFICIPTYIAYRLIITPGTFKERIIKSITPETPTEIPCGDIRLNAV

SMILES | Ki (h-SERT) [µM] | IC50 (BuChE; [1]) [µM] | IC50 (AChE; read-out: AChE IC50) [µM] | IC50 (BuChE) [µM] | IC50 (AChE; AChE IC50 (µM)) [µM] | IC50 (human AChE; h-AChE) [µM]
COc1cc2c(cc1OC)CN(C(=O)C1CCN(Cc3ccccc3)CC1)CC2 [Compound 7, (1-Benzylpiperidin-4-yl)(6,7-dimethoxy-3,4-dihydroisoquinolin-2(1H)-yl)methanone] | > 100 | > 500 | 34.4 ± 0.51 | – | – | –
COc1cc2c(cc1OC)CN(C(=O)C1CCN(Cc3cccc(F)c3)CC1)CC2 [Compound 8, (6,7-Dimethoxy-3,4-dihydroisoquinolin-2(1H)-yl)(1-(3-fluorobenzyl)piperidin-4-yl)methanone] | > 100 | > 500 | 41.2 ± 3.17 | – | – | –
COc1cc2c(cc1OC)CN(C(=O)C1CCN(Cc3cccc(Cl)c3)CC1)CC2 [Compound 9, (1-(3-Chlorobenzyl)piperidin-4-yl)(6,7-dimethoxy-3,4-dihydroisoquinolin-2(1H)-yl)methanone] | > 100 | 268 ± 13.8 | 34.5 ± 1.97 | – | – | –
COc1cc2c(cc1OC)CN(C(=O)C1CCN(Cc3cccc(Br)c3)CC1)CC2 [Compound 10, (1-(3-Bromobenzyl)piperidin-4-yl)(6,7-dimethoxy-3,4-dihydroisoquinolin-2(1H)-yl)methanone] | > 100 | 426 ± 28.6 | 28.3 ± 0.87 | – | – | –
COc1cc2c(cc1OC)CN(C(=O)C1CCN(Cc3ccc(Cl)cc3Cl)CC1)CC2 [Compound 11, (1-(2,4-Dichlorobenzyl)piperidin-4-yl)(6,7-dimethoxy-3,4-dihydroisoquinolin-2(1H)-yl)methanone] | > 100 | > 500 | > 500 | – | – | –
COc1cc2c(cc1OC)CN(CC1CCN(C(=O)c3ccccc3)CC1)CC2 [Compound 12, (4-((6,7-Dimethoxy-3,4-dihydroisoquinolin-2(1H)-yl)methyl)piperidin-1-yl)(phenyl)methanone] | 2.62 ± 0.82 | > 500 | 290 ± 10.9 | – | – | –
COc1cc2c(cc1OC)CN(CC1CCN(C(=O)c3cccc(F)c3)CC1)CC2 [Compound 13, (4-((6,7-Dimethoxy-3,4-dihydroisoquinolin-2(1H)-yl)methyl)piperidin-1-yl)(3-fluorophenyl)methanone] | 1.91 ± 0.77 | > 500 | > 500 | – | – | –
COc1cc2c(cc1OC)CN(CC1CCN(C(=O)c3cccc(Cl)c3)CC1)CC2 [Compound 14, (3-Chlorophenyl)(4-((6,7-dimethoxy-3,4-dihydroisoquinolin-2(1H)-yl)methyl)piperidin-1-yl)methanone] | 2.43 ± 0.24 | > 500 | > 500 | – | – | –
COc1cc2c(cc1OC)CN(CC1CCN(C(=O)c3cccc(Br)c3)CC1)CC2 [Compound 15, (3-Bromophenyl)(4-((6,7-dimethoxy-3,4-dihydroisoquinolin-2(1H)-yl)methyl)piperidin-1-yl)methanone] | 1.47 ± 0.73 | > 500 | 242 ± 24.4 | – | – | –
COc1cccc(C(=O)N2CCC(CN3CCc4cc(OC)c(OC)cc4C3)CC2)c1 [Compound 16, (4-((6,7-Dimethoxy-3,4-dihydroisoquinolin-2(1H)-yl)methyl)piperidin-1-yl)(3-methoxyphenyl)methanone] | 1.59 ± 0.58 | > 500 | 439 ± 28 | – | – | –
O=C(Cc1ccccc1)OCC1CCN(Cc2ccccc2)CC1 [Compound 18, (1-Benzylpiperidin-4-yl)methyl-2-phenylacetate] | 27.1 ± 3.4 | – | – | 256 ± 5.03 | 200 ± 8.61 | –
O=C(Cc1ccc(F)cc1)OCC1CCN(Cc2ccccc2)CC1 [Compound 19, (1-Benzylpiperidin-4-yl)methyl-2-(4-fluorophenyl)acetate] | – | 26.8 ± 0.81 | 5.1 ± 0.24 | – | – | –
O=C(Cc1ccc(Cl)cc1)OCC1CCN(Cc2ccccc2)CC1 [Compound 20, (1-Benzylpiperidin-4-yl)methyl-2-(4-chlorophenyl)acetate] | > 100 | > 500 | 259 ± 14.6 | – | – | –
O=C(OCC1CCN(Cc2ccccc2)CC1)C(c1ccccc1)c1ccccc1 [Compound 21, (1-Benzylpiperidin-4-yl)methyl-2,2-diphenylacetate] | 25.5 ± 1.01 | 6.16 ± 0.29 | > 500 | – | – | –
O=C(OCC1CCN(Cc2ccccc2)CC1)c1ccc2ccccc2c1 [Compound 22, (1-Benzylpiperidin-4-yl)methyl-2-naphthoate] | 26.9 ± 2.57 | 59.3 ± 1.42 | 61.7 ± 2.56 | – | – | –
COc1ccc2c3c1O[C@H]1C[C@@H](O)C=C[C@@]31CCN(C)C2 [GAL, Galantamine hydrobromide] | – | – | – | – | – | 18.6
